Laboratory results published in the supplement of paper PMC4862054.

Experiments:
Conditions in all cases: incubation time: 72 h
HDQ-P1 [1] = assay: normalised viability (% of control), CellTiter-Blue; higher = more viable cells (about 100 = DMSO control)
In short: (§1)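 384-well plates were pre-loaded with compound in 5 µl medium before 20 µl of breast cancer cell suspension was seeded. Following 72 h incubation, 2.5 µl CellTiter-Blue reagent was added for 2 h at 37 °C. Fluorescence was read at 560/590 nm and plates were normalised to vehicle (100) and a positive kill control (0), checked by Z'-factor. Normalised viability is reported at a single listed concentration of the series.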

DU-4475 [2] = assay: as above
In short: as §1

Hs578T [3] = assay: as above
In short: as §1

CAL-148 [4] = assay: as above
In short: as §1

CAL-85-1 [5] = assay: as above
In short: as §1

MDA-MB-436 [6] = assay: as above
In short: as §1

HDQ-P1 [7] = assay: drug sensitivity score (DSS), CellTiter-Glo (DSS (AUC-based score)); higher = stronger drug effect (viability inhibition or cytotoxicity); extreme values may be limits of the assay
In short: (§2)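 In 384-well plates, compound was laid out at 5 concentrations in 10-fold steps over a 10,000-fold range specific to each compound, and breast cancer cell lines were seeded on top in 20 µl suspension for a 72 h incubation. CellTox Green fluorescence and then CellTiter-Glo luminescence were read, and each plate was normalised to 0.1 % DMSO and a positive kill control. The drug sensitivity score was calculated from the area under the fitted dose-response curve.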

BT-474 = assay: as above
In short: as §2

MDA-MB-231 = assay: as above
In short: as §2

HCC1143 = assay: as above
In short: as §2

CAL-51 = assay: as above
In short: as §2

MDA-MB-453 = assay: as above
In short: as §2

MDA-MB-468 = assay: as above
In short: as §2

SK-BR-3 = assay: as above
In short: as §2

DU-4475 [8] = assay: as above
In short: as §2

Hs578T [9] = assay: as above
In short: as §2

CAL-148 [10] = assay: as above
In short: as §2

HCC1937 = assay: as above
In short: as §2

HCC1599 = assay: as above
In short: as §2

MFM-223 = assay: as above
In short: as §2

CAL-120 = assay: as above
In short: as §2

CAL-85-1 [11] = assay: as above
In short: as §2

MDA-MB-436 [12] = assay: as above
In short: as §2

BT-549 = assay: as above
In short: as §2

MCF-10A = assay: as above
In short: as §2

CC(C)C(=O)Nc1ccc([N+](=O)[O-])c(C(F)(F)F)c1 [Flutamide]
normalised viability [%]
Conditions | CAL-85-1 [5] | CAL-148 [4] | DU-4475 [2] | HDQ-P1 [1] | Hs578T [3] | MDA-MB-436 [6]
3 nM | 101 | 95.5 | 111 | 109 | – | –
10 nM | – | – | – | – | 96.4 | 91.5
30 nM | 91.8 | 99.9 | 85.1 | 105 | – | –
100 nM | 101 | 103 | 97.2 | 109 | – | –
1000 nM | – | – | – | – | 109 | 95.4
10000 nM | – | – | – | – | 96.7 | 91.6

Conditions | drug sensitivity score
BT-474 | 0
BT-549 | 0
CAL-51 | 0.0535
CAL-85-1 [11] | 0
CAL-120 | 0
CAL-148 [10] | 0
DU-4475 [8] | 0
HCC1143 | 0
HCC1599 | 0
HCC1937 | 0
HDQ-P1 [7] | 0
Hs578T [9] | 0
MCF-10A | 0
MDA-MB-231 | 0
MDA-MB-436 [12] | 0
MDA-MB-453 | 0
MDA-MB-468 | 0
MFM-223 | 0
SK-BR-3 | 0

COc1cc2c(Oc3ccc(NC(=O)C4(C(=O)Nc5ccc(F)cc5)CC4)cc3F)ccnc2cc1OCCCN1CCOCC1 [Foretinib]
normalised viability [%]
Conditions | CAL-85-1 [5] | CAL-148 [4] | DU-4475 [2] | HDQ-P1 [1] | Hs578T [3] | MDA-MB-436 [6]
0.3 nM | 95 | 99.8 | 104 | 107 | – | –
1 nM | – | – | – | – | 114 | 132
3 nM | 86.3 | 97.6 | 91.8 | 99.2 | – | –
10 nM | 95.8 | 96.4 | 105 | 105 | – | –
100 nM | – | – | – | – | 106 | 77.8
1000 nM | – | – | – | – | 61 | 84

Conditions | drug sensitivity score
BT-474 | 2.19
BT-549 | 0
CAL-51 | 1.01
CAL-85-1 [11] | 0
CAL-120 | 2.45
CAL-148 [10] | 1.11
DU-4475 [8] | 0
HCC1143 | 1.22
HCC1599 | 0
HCC1937 | 0
HDQ-P1 [7] | 0
Hs578T [9] | 0
MCF-10A | 1.41
MDA-MB-231 | 2.4
MDA-MB-436 [12] | 0.456
MDA-MB-453 | 0
MDA-MB-468 | 1.64
MFM-223 | 6.22
SK-BR-3 | 0

NC(=O)NO [Hydroxyurea]
normalised viability [%]
Conditions | CAL-85-1 [5] | CAL-148 [4] | DU-4475 [2] | HDQ-P1 [1] | Hs578T [3] | MDA-MB-436 [6]
30 nM | 104 | 106 | 122 | 108 | – | –
100 nM | – | – | – | – | 110 | 99.4
300 nM | 93.2 | 116 | 115 | 122 | – | –
1000 nM | 105 | 112 | 98.3 | 111 | – | –
10000 nM | – | – | – | – | 104 | 89.4
100000 nM | – | – | – | – | 90.3 | 102

Conditions | drug sensitivity score
BT-474 | 0
BT-549 | 1.87
CAL-51 | 16.2
CAL-85-1 [11] | 0
CAL-120 | 0
CAL-148 [10] | 0
DU-4475 [8] | 0
HCC1143 | 0
HCC1599 | 0
HCC1937 | 0
HDQ-P1 [7] | 0
Hs578T [9] | 0
MCF-10A | 0
MDA-MB-231 | 0
MDA-MB-436 [12] | 0
MDA-MB-453 | 0
MDA-MB-468 | 0
MFM-223 | 0
SK-BR-3 | 0

O=NN(CCCl)C(=O)NC1CCCCC1 [Lomustine]
normalised viability [%]
Conditions | CAL-85-1 [5] | CAL-148 [4] | DU-4475 [2] | HDQ-P1 [1] | Hs578T [3] | MDA-MB-436 [6]
3 nM | 104 | 100 | 117 | 117 | – | –
10 nM | – | – | – | – | 105 | 108
30 nM | 88 | 113 | 98.7 | 98.7 | – | –
100 nM | 104 | 99.4 | 88.2 | 105 | – | –
1000 nM | – | – | – | – | 98.1 | 95.5
10000 nM | – | – | – | – | 98.7 | 97.7

Conditions | drug sensitivity score
BT-474 | 0
BT-549 | 0
CAL-51 | 0
CAL-85-1 [11] | 0
CAL-120 | 0
CAL-148 [10] | 0
DU-4475 [8] | 0
HCC1143 | 0
HCC1599 | 0
HCC1937 | 0
HDQ-P1 [7] | 0
Hs578T [9] | 0
MCF-10A | 0
MDA-MB-231 | 0
MDA-MB-436 [12] | 0
MDA-MB-453 | 0
MDA-MB-468 | 0
MFM-223 | 0
SK-BR-3 | 0

O=C(O)CC[C@H]1CC[C@@](c2cc(F)ccc2F)(S(=O)(=O)c2ccc(Cl)cc2)CC1 [MK-0752]
normalised viability [%]
Conditions | CAL-85-1 [5] | CAL-148 [4] | DU-4475 [2] | HDQ-P1 [1] | Hs578T [3] | MDA-MB-436 [6]
0.3 nM | 98.7 | 99.1 | 115 | 122 | – | –
1 nM | – | – | – | – | 137 | 109
3 nM | 82.4 | 109 | 91.5 | 96.5 | – | –
10 nM | 103 | 111 | 101 | 115 | – | –
100 nM | – | – | – | – | 103 | 92.2
1000 nM | – | – | – | – | 113 | 111

Conditions | drug sensitivity score
BT-474 | 0
BT-549 | 0
CAL-51 | 0
CAL-85-1 [11] | 0
CAL-120 | 0
CAL-148 [10] | 0
DU-4475 [8] | 0
HCC1143 | 0
HCC1599 | 0
HCC1937 | 0
HDQ-P1 [7] | 0
Hs578T [9] | 0
MCF-10A | 0
MDA-MB-231 | 0
MDA-MB-436 [12] | 0
MDA-MB-453 | 0
MDA-MB-468 | 0
MFM-223 | 0
SK-BR-3 | 0
